From ChEMBL document CHEMBL3576778, “Structure-Activity Relationship Studies of a Series of Semisynthetic Lipopeptides Leading to the Discovery of Surotomycin, a Novel Cyclic Lipopeptide Being Developed for the Treatment of Clostridium difficile-Associated Diarrhea” (J Med Chem, 2015)
Converted amounts (≈) assume the structure as drawn.

Tests used:
[1] = tested on: Enterococcus faecalis; assay: Antimicrobial activity against daptomycin-resistant Enterococcus faecalis ATCC 49452 incubated anaerobically at 37 degC for 48 hrs by agar dilution method; format: functional; settings: ATCC 49452, 48 h
[2] = tested on: Clostridioides difficile; assay: Antimicrobial activity against daptomycin-resistant Clostridium difficile NAP1 incubated anaerobically at 37 degC for 48 hrs by agar dilution method; format: functional; settings: NAP1, 48 h
[3] = tested on: Enterococcus faecium; assay: Antimicrobial activity against daptomycin-resistant Enterococcus faecium ATCC 6569 incubated anaerobically at 37 degC for 48 hrs by agar dilution method; format: functional; settings: ATCC 6569, 48 h
[4] = tested on: Clostridioides difficile; assay: Antimicrobial activity against daptomycin-resistant Clostridium difficile ATCC 43596 infected in Syrian golden hamster model of Clostridium difficile-associated diarrhea assessed as protection against microbial infection by measuring survival at day 25 to 26 at 0.5 mg/kg treated once daily for 5 consecutive days starting 4 hrs after spore inoculation; format: functional
[5] = tested on: Staphylococcus aureus; assay: Antimicrobial activity against daptomycin-susceptible Staphylococcus aureus ATCC 29213 incubated anaerobically at 37 degC for 48 hrs by agar dilution method; format: functional; settings: ATCC 29213, 48 h
[6] = tested on: Bacteroides fragilis; assay: Toxicity against Bacteroides fragilis assessed as inhibition of microbe growth; format: organism-based
[7] = tested on: Staphylococcus aureus; assay: Antimicrobial activity against daptomycin-non-susceptible Staphylococcus aureus 1146 incubated anaerobically at 37 degC for 48 hrs by agar dilution method; format: functional; settings: Staphylococcus aureus, 1146, 48 h
[8] = tested on: Staphylococcus aureus; assay: Antimicrobial activity against daptomycin-non-susceptible Staphylococcus aureus 5014 incubated anaerobically at 37 degC for 48 hrs by agar dilution method; format: functional; settings: Staphylococcus aureus, 5014, 48 h
[9] = tested on: Staphylococcus aureus; assay: Antimicrobial activity against daptomycin-non-susceptible Staphylococcus aureus 5006 incubated anaerobically at 37 degC for 48 hrs by agar dilution method; format: functional; settings: Staphylococcus aureus, 5006, 48 h
[10] = tested on: Staphylococcus aureus; assay: Antimicrobial activity against daptomycin-non-susceptible Staphylococcus aureus 5030 incubated anaerobically at 37 degC for 48 hrs by agar dilution method; format: functional; settings: Staphylococcus aureus, 5030, 48 h
[11] = tested on: Staphylococcus aureus; assay: Antimicrobial activity against daptomycin-non-susceptible Staphylococcus aureus 5016 incubated anaerobically at 37 degC for 48 hrs by agar dilution method; format: functional; settings: Staphylococcus aureus, 5016, 48 h
[12] = tested on: Staphylococcus aureus; assay: Antimicrobial activity against daptomycin-non-susceptible Staphylococcus aureus 5033 incubated anaerobically at 37 degC for 48 hrs by agar dilution method; format: functional; settings: Staphylococcus aureus, 5033, 48 h
[13] = tested on: Staphylococcus aureus; assay: Antimicrobial activity against daptomycin-non-susceptible Staphylococcus aureus 42 incubated anaerobically at 37 degC for 48 hrs by agar dilution method; format: functional; settings: Staphylococcus aureus, 42, 48 h
[14] = tested on: Staphylococcus aureus; assay: Antimicrobial activity against daptomycin-non-susceptible Staphylococcus aureus 5004 incubated anaerobically at 37 degC for 48 hrs by agar dilution method; format: functional; settings: Staphylococcus aureus, 5004, 48 h
[15] = tested on: Staphylococcus aureus; assay: Antimicrobial activity against daptomycin-non-susceptible Staphylococcus aureus 5063 incubated anaerobically at 37 degC for 48 hrs by agar dilution method; format: functional; settings: Staphylococcus aureus, 5063, 48 h
[16] = tested on: Staphylococcus aureus; assay: Antimicrobial activity against daptomycin-non-susceptible Staphylococcus aureus 5091 incubated anaerobically at 37 degC for 48 hrs by agar dilution method; format: functional; settings: Staphylococcus aureus, 5091, 48 h
[17] = tested on: Staphylococcus aureus; assay: Antimicrobial activity against daptomycin-non-susceptible Staphylococcus aureus 1145 incubated anaerobically at 37 degC for 48 hrs by agar dilution method; format: functional; settings: Staphylococcus aureus, 1145, 48 h
[18] = tested on: Staphylococcus aureus; assay: Antimicrobial activity against daptomycin-non-susceptible Staphylococcus aureus 5034 incubated anaerobically at 37 degC for 48 hrs by agar dilution method; format: functional; settings: Staphylococcus aureus, 5034, 48 h
[19] = tested on: Staphylococcus aureus; assay: Antimicrobial activity against daptomycin-non-susceptible Staphylococcus aureus 5012 incubated anaerobically at 37 degC for 48 hrs by agar dilution method; format: functional; settings: Staphylococcus aureus, 5012, 48 h
[20] = tested on: Staphylococcus aureus; assay: Antimicrobial activity against daptomycin-non-susceptible Staphylococcus aureus 5060 incubated anaerobically at 37 degC for 48 hrs by agar dilution method; format: functional; settings: Staphylococcus aureus, 5060, 48 h
[21] = tested on: Staphylococcus aureus; assay: Antimicrobial activity against daptomycin-non-susceptible Staphylococcus aureus 5005 incubated anaerobically at 37 degC for 48 hrs by agar dilution method; format: functional; settings: Staphylococcus aureus, 5005, 48 h
[22] = tested on: Staphylococcus aureus; assay: Antimicrobial activity against daptomycin-non-susceptible Staphylococcus aureus 5003 incubated anaerobically at 37 degC for 48 hrs by agar dilution method; format: functional; settings: Staphylococcus aureus, 5003, 48 h
[23] = tested on: Staphylococcus aureus; assay: Antimicrobial activity against daptomycin-non-susceptible Staphylococcus aureus 5076 incubated anaerobically at 37 degC for 48 hrs by agar dilution method; format: functional; settings: Staphylococcus aureus, 5076, 48 h
[24] = tested on: Staphylococcus aureus; assay: Antimicrobial activity against daptomycin-non-susceptible Staphylococcus aureus 5008 incubated anaerobically at 37 degC for 48 hrs by agar dilution method; format: functional; settings: Staphylococcus aureus, 5008, 48 h
[25] = tested on: Staphylococcus aureus; assay: Antimicrobial activity against daptomycin-non-susceptible Staphylococcus aureus 1326 incubated anaerobically at 37 degC for 48 hrs by agar dilution method; format: functional; settings: Staphylococcus aureus, 1326, 48 h
[26] = tested on: Staphylococcus aureus; assay: Antimicrobial activity against daptomycin-non-susceptible Staphylococcus aureus 1616 incubated anaerobically at 37 degC for 48 hrs by agar dilution method; format: functional; settings: Staphylococcus aureus, 1616, 48 h
[27] = tested on: Staphylococcus aureus; assay: Antimicrobial activity against daptomycin-non-susceptible Staphylococcus aureus 5059 incubated anaerobically at 37 degC for 48 hrs by agar dilution method; format: functional; settings: Staphylococcus aureus, 5059, 48 h
[28] = tested on: Staphylococcus aureus; assay: Antimicrobial activity against daptomycin-non-susceptible Staphylococcus aureus 1179 incubated anaerobically at 37 degC for 48 hrs by agar dilution method; format: functional; settings: Staphylococcus aureus, 1179, 48 h
[29] = tested on: Staphylococcus aureus; assay: Antimicrobial activity against daptomycin-non-susceptible Staphylococcus aureus 278 incubated anaerobically at 37 degC for 48 hrs by agar dilution method; format: functional; settings: Staphylococcus aureus, 278, 48 h
[30] = tested on: Staphylococcus aureus; assay: Antimicrobial activity against daptomycin-non-susceptible Staphylococcus aureus 5017 incubated anaerobically at 37 degC for 48 hrs by agar dilution method; format: functional; settings: Staphylococcus aureus, 5017, 48 h
[31] = tested on: Staphylococcus aureus; assay: Antimicrobial activity against daptomycin-non-susceptible Staphylococcus aureus 5080 incubated anaerobically at 37 degC for 48 hrs by agar dilution method; format: functional; settings: Staphylococcus aureus, 5080, 48 h
[32] = tested on: Staphylococcus aureus; assay: Antimicrobial activity against daptomycin-non-susceptible Staphylococcus aureus 5010 incubated anaerobically at 37 degC for 48 hrs by agar dilution method; format: functional; settings: Staphylococcus aureus, 5010, 48 h
[33] = tested on: Staphylococcus aureus; assay: Antimicrobial activity against daptomycin-non-susceptible Staphylococcus aureus 5081 incubated anaerobically at 37 degC for 48 hrs by agar dilution method; format: functional; settings: Staphylococcus aureus, 5081, 48 h
[34] = tested on: Clostridioides difficile; assay: Antimicrobial activity against metronidazole-resistant Clostridium difficile; format: functional
[35] = tested on: Clostridioides difficile; assay: Antimicrobial activity against vancomycin-resistant Clostridium difficile; format: functional

SMILES: CCCCCCCc1ccc(C(=O)N[C@@H](Cc2c[nH]c3ccccc23)C(=O)N[C@@H](CC(N)=O)C(=O)N[C@@H](CC(=O)O)C(=O)N[C@@H]2C(=O)NCC(=O)N[C@@H](CCCN)C(=O)N[C@H](CC(=O)O)C(=O)N[C@H](C)C(=O)N[C@@H](CC(=O)O)C(=O)NCC(=O)N[C@H](CO)C(=O)N[C@@H]([C@@H](C)CC(=O)O)C(=O)N[C@@H](CC(=O)c3ccccc3N)C(=O)O[C@@H]2C)cc1
- MIC [1]: 8 µg/mL (≈ 4.79 µM)
- MIC [2]: 0.5 µg/mL (≈ 0.3 µM)
- MIC [3]: 4 µg/mL (≈ 2.4 µM)
- survival at 0.5 mg/kg [4]: 80%
- MIC [5]: 0.25 µg/mL (≈ 0.15 µM)

SMILES: CCCCCCCCc1ccc(C(=O)N[C@@H](Cc2c[nH]c3ccccc23)C(=O)N[C@@H](CC(N)=O)C(=O)N[C@@H](CC(=O)O)C(=O)N[C@@H]2C(=O)NCC(=O)N[C@@H](CCCN)C(=O)N[C@H](CC(=O)O)C(=O)N[C@H](C)C(=O)N[C@@H](CC(=O)O)C(=O)NCC(=O)N[C@H](CO)C(=O)N[C@@H]([C@@H](C)CC(=O)O)C(=O)N[C@@H](CC(=O)c3ccccc3N)C(=O)O[C@@H]2C)cc1
- MIC [1]: 8 µg/mL (≈ 4.75 µM)
- MIC [2]: 1 µg/mL (≈ 0.594 µM)
- MIC [3]: 4 µg/mL (≈ 2.38 µM)
- survival at 0.5 mg/kg [4]: 20%
- MIC [5]: 0.5 µg/mL (≈ 0.297 µM)

SMILES: CCCCCCCc1csc(C(=O)N[C@@H](Cc2c[nH]c3ccccc23)C(=O)N[C@@H](CC(N)=O)C(=O)N[C@@H](CC(=O)O)C(=O)N[C@@H]2C(=O)NCC(=O)N[C@@H](CCCN)C(=O)N[C@H](CC(=O)O)C(=O)N[C@H](C)C(=O)N[C@@H](CC(=O)O)C(=O)NCC(=O)N[C@H](CO)C(=O)N[C@@H]([C@@H](C)CC(=O)O)C(=O)N[C@@H](CC(=O)c3ccccc3N)C(=O)O[C@@H]2C)c1
- MIC [1]: 32 µg/mL (≈ 19.1 µM)
- MIC [2]: 2 µg/mL (≈ 1.19 µM)
- MIC [3]: 16 µg/mL (≈ 9.55 µM)
- survival at 0.5 mg/kg [4]: 60%
- MIC [5]: 0.125 µg/mL (≈ 0.0746 µM)

SMILES: CCCCCc1ccc(/C(C)=C/C(=O)N[C@@H](Cc2c[nH]c3ccccc23)C(=O)N[C@H](CC(N)=O)C(=O)N[C@@H](CC(=O)O)C(=O)N[C@@H]2C(=O)NCC(=O)N[C@@H](CCCN)C(=O)N[C@@H](CC(=O)O)C(=O)N[C@H](C)C(=O)N[C@@H](CC(=O)O)C(=O)NCC(=O)N[C@H](CO)C(=O)N[C@@H]([C@@H](C)CC(=O)O)C(=O)N[C@@H](CC(=O)c3ccccc3N)C(=O)O[C@@H]2C)cc1
- MIC [6]: >= 8192 ug ml-1

SMILES: CCCCCCCCCC(=O)N[C@@H](Cc1c[nH]c2ccccc12)C(=O)N[C@H](CC(N)=O)C(=O)N[C@@H](CC(=O)O)C(=O)N[C@@H]1C(=O)NCC(=O)N[C@@H](CCCN)C(=O)N[C@@H](CC(=O)O)C(=O)N[C@H](C)C(=O)N[C@@H](CC(=O)O)C(=O)NCC(=O)N[C@H](CO)C(=O)N[C@@H]([C@H](C)CC(=O)O)C(=O)N[C@@H](CC(=O)c2ccccc2N)C(=O)O[C@@H]1C
- MIC [7]: 1 µg/mL (≈ 0.617 µM)
- MIC [8]: 0.5 µg/mL (≈ 0.309 µM)
- MIC [1]: > 32 µg/mL
- MIC [9]: 2 µg/mL (≈ 1.23 µM)
- MIC [10]: 8 µg/mL (≈ 4.94 µM)
- MIC [11]: 4 µg/mL (≈ 2.47 µM)
- MIC [12]: 1 µg/mL (≈ 0.617 µM)
- MIC [13]: 0.5 µg/mL (≈ 0.309 µM)
- MIC [14]: 1 µg/mL (≈ 0.617 µM)
- MIC [2]: 2 µg/mL (≈ 1.23 µM)
- MIC [15]: 8 µg/mL (≈ 4.94 µM)
- MIC [16]: 2 µg/mL (≈ 1.23 µM)
- MIC [17]: 1 µg/mL (≈ 0.617 µM)
- MIC [18]: 2 µg/mL (≈ 1.23 µM)
- MIC [19]: 2 µg/mL (≈ 1.23 µM)
- MIC [20]: 4 µg/mL (≈ 2.47 µM)
- MIC [21]: 4 µg/mL (≈ 2.47 µM)
- MIC [22]: 2 µg/mL (≈ 1.23 µM)
- MIC [3]: > 32 µg/mL
- MIC [23]: 2 µg/mL (≈ 1.23 µM)
- MIC [24]: 2 µg/mL (≈ 1.23 µM)
- MIC [25]: 4 µg/mL (≈ 2.47 µM)
- MIC [26]: 16 µg/mL (≈ 9.87 µM)
- MIC [27]: 4 µg/mL (≈ 2.47 µM)
- MIC [28]: 2 µg/mL (≈ 1.23 µM)
- MIC [29]: 16 µg/mL (≈ 9.87 µM)
- MIC [5]: 0.5 µg/mL (≈ 0.309 µM)
- MIC [30]: 4 µg/mL (≈ 2.47 µM)
- MIC [31]: 4 µg/mL (≈ 2.47 µM)
- MIC [32]: 0.5 µg/mL (≈ 0.309 µM)
- MIC [33]: 4 µg/mL (≈ 2.47 µM)

SMILES: Cc1ncc([N+](=O)[O-])n1CCO [METRONIDAZOLE]
- MIC [34]: ≥ 8 µg/mL

SMILES: CN[C@H](CC(C)C)C(=O)N[C@H]1C(=O)N[C@@H](CC(N)=O)C(=O)N[C@H]2C(=O)N[C@H]3C(=O)N[C@H](C(=O)N[C@H](C(=O)O)c4cc(O)cc(O)c4-c4cc3ccc4O)[C@H](O)c3ccc(c(Cl)c3)Oc3cc2cc(c3O[C@@H]2O[C@H](CO)[C@@H](O)[C@H](O)[C@H]2O[C@H]2C[C@](C)(N)[C@H](O)[C@H](C)O2)Oc2ccc(cc2Cl)[C@H]1O [VANCOMYCIN]
- MIC [35]: ≥ 4 µg/mL
- survival at 0.5 mg/kg [4]: 25%
